Paper PMC7352342, “Inhibition of Patched Drug Efflux Increases Vemurafenib Effectiveness against Resistant Braf^V600E Melanoma” (Cancers, 2020)
Structures can show the parent of a compound that is named as a salt. Where two headings read alike, the source gives them in different places.

Key:
A375 cells [1] = assay: Cytotoxicity assay (neutral red), A375 cells; type: cell-based, human; details: for IC50: Homo sapiens
Protocol: (§1) Human melanoma cell lines A375 and MeWo were purchased from ATCC, and cultured in DMEM medium supplemented with 10% fetal bovine serum and penicillin/streptomycin (Invitrogen) at 37 °C in a 5% CO2/95% water-saturated air atmosphere. Melanoma cell lines SKMEL 28, SKMEL V3, WM9S, and WM9R were provided by Robert Ballotti (C3M, Nice, France). MeWo-dxrR cells were obtained by adding increasing concentrations of doxorubicin, up to 0.2 µM, in the culture medium over 6 months. These cells were grown in medium supplemented with 0.2 µM dxr. WM9R cells were obtained by adding increasing concentrations of vemurafenib, up to 5 µM, in the culture medium over 6 months. These cells were grown in medium supplemented with 5 µM vemurafenib. HEK cells were grown in 75 mm tissue culture dishes (Falcon, Franklin Lakes, NJ, USA) in Dulbecco’s modified Eagle’s medium (Gibco, Life Technologies, Saint Aubin, France) supplemented with 10% fetal calf serum (Hyclone, Thermo Fisher Scientific GMBH, Ulm, Germany) and 1% penicillin/streptomycin (Gibco, Life Technologies, Saint Aubin, France) in a humidified incubator at 37 °C (5% CO2).
(§2) Cells were seeded in 96-well plates in triplicate and grown in medium to achieve 70 to 80% confluence. Medium was then removed and replaced with 100 µL/well of complete medium containing PAH or DMSO as a control. After 2 h, 100 µL of complete medium containing serial dilutions of dxr, cisplatin or vemurafenib were added. Plates were incubated at 37 °C and 5% CO2. After 24 or 48 h, cells were incubated for 3 h at 37 °C with 100 µL/well neutral red (NR) solution (50 µg/mL in medium) following the manufacturer’s protocol. Measurements were made in microplate readers (Multiskan Go Microplate Spectrophotometer from Thermo Scientific).

MeWo cells [2] = assay: Cytotoxicity assay (neutral red), MeWo cells; type: cell-based, human; details: for Dxr-IC50 in the presence of 20 µM compound: MeWo (Figure 3B), same series also tested on A375 (Figure S1); for Dxr-IC50 in the presence of 20 µM compound / effect on dxr cytotoxicity: compound at 20 µM; for effect on dxr cytotoxicity: melanoma cells MeWo (Figure 3B) and A375 (Figure S1), compared to PAH; for IC50: Homo sapiens
Protocol: as §1, §2

WM9R cells = assay: Competition on dxr loading, WM9R cells; type: cell-based; details: 10 µM dxr, 100 µM vemurafenib, 1 h
Protocol: (§3) Dxr efflux measurements were carried out as previously described. Cells were seeded on coverslips in 24-well plates and allowed to grow to 80% confluence. Coverslips were incubated at 37 °C and 5% CO2 with 10 μM dxr in physiological buffer (140 mM NaCl, 5 mM KCl, 1 mM CaCl2, 1 mM MgSO4, 5 mM glucose, 20 mM HEPES, pH 7.4). After 2 h, three coverslips were immediately fixed with 4% PFA for the dxr loading control, rapidly washed with PBS and mounted in SlowFade Gold antifade reagent with DAPI (Invitrogen). The other coverslips (triplicated per condition) were incubated with physiological buffer supplemented with DMSO or 10 µM of PAH under gentle shaking at room temperature and protected from light. After 30 min, coverslips were fixed with 4% PFA, washed, and mounted as described above. For competition on dxr loading, A375 and WM9R cells seeded on coverslips were incubated for 1 h at 37 °C and 5% CO2 with 10 μM dxr in physiological buffer in the presence or the absence of 100 µM vemurafenib. Images were acquired with a Zeiss Axioplan 2 fluorescence microscope coupled to a digital charge-coupled device camera using a 40×/1.3 Plan NeoFluar objective and filters for Alexa 594. Dxr fluorescence was quantified using ImageJ software. Sampling of cells was performed randomly. About 100 cells (from three wells) were scored per condition per experiment.

A375 cells [3] = assay: Competition on dxr loading, A375 cells; type: cell-based, human; details: 10 µM dxr, 100 µM vemurafenib, 1 h
Protocol: as §3

[4] = tested on: A375 BRAF^V600E melanoma cells; assay: Melanoma xenograft study in mice; type: in vivo; details: Figure S6
Protocol: Forty-eight male athymic Nu/NU NMRI mice (4–5 weeks) were purchased from Charles River and housed under pathogen-free conditions. A 200 µL aliquot of 3 Millions A375 BRAF^V600E melanoma cells were injected subcutaneously per mouse. […] Animals were monitored daily for symptoms of disease (weight loss >20%, ruffled coat, hunched back, weakness, reduced motility) and tumor sizes were measured every 3 to 4 days. […]
A part of each tumor was cut in 8 µm thick tissue sections using a microtome-cryostat for quantification of the number of apoptotic tumor cells and of proliferative cells performed using the colorimetric DeadEND TUNEL System (Promega, Mannheim, Germany) and immunofluorescence analysis of Ki67 (BD pharmigen 556003), respectively. OCT was removed from the remainder of each tumor, and tumors were crushed in 50 mM Tris-HCl pH 6.8, 10% glycerol, and 2% SDS), heated at 95 °C, and sonicated for Western blot analyses as well as vemurafenib and cholesterol quantification. Protein concentration in each homogenate was evaluated using a Bio-Rad protein assay based on the Bradford dye-binding method.

MeWo-DxrR cells = assay: Cytotoxicity assay (neutral red), MeWo cells rendered resistant to dxr; type: cell-based; details: Homo sapiens, Dxr + DMSO
Protocol: as §1
Cells were seeded in 96-well plates in triplicate and grown in medium to achieve 70 to 80% confluence. […] Measurements were made in microplate readers (Multiskan Go Microplate Spectrophotometer from Thermo Scientific).

MeWo cells [5] = assay: Melanoma cells grafted on the chorioallantoic membrane (CAM) of chick eggs; type: in vivo; details: MeWo tumors on CAM; sPAH 500 µM and/or Dxr 20 µM, 100 µL every two days, 10 days
Protocol: These experiments were performed by the company INOVOTION (La Tronche, France). Fertilized White Leghorn eggs were randomized in 4 groups 9 days after inoculation of 3.10^6 MeWo cells onto the CAM of each egg. At day 10 (E10), tumors began to be detectable and they were treated by adding 100 µL of vehicle (1.2% DMSO in PBS), doxorubicin, and sPAH alone or with doxorubicin. Eggs were treated every two days (E10, E12, E14, E16, E18) for 10 days in the same way. At day 19 (E19), the upper portion of the CAM was removed, washed in PBS, and directly transferred in PFA for 48 h, and the tumors were then carefully cut away from normal CAM tissue.

## COc1cc(C)c(CCC(C)CCc2cc(O)ccc2O)c(C)c1C (centres unmarked) [Compound 13]
A375 cells [1]; A375, 20 µM compound
  Dxr IC50 in the presence of compound relative to that in the presence of PAH: comparable to that of PAH
MeWo cells [2]; MeWo, 20 µM compound
  Dxr IC50 in the presence of compound relative to that in the presence of PAH: approximately 4 fold

## COc1cc(C)c(CCC(C)CCC2=CC(=O)C=CC2=O)c(C)c1C (centres unmarked) [Compound 12]
MeWo cells [2]
  Dxr-IC50 in the presence of 20 µM compound: could not be determined, owing to greater than 50% viability

## CCCS(=O)(=O)Nc1ccc(F)c(C(=O)c2c[nH]c3ncc(-c4ccc(Cl)cc4)cc23)c1F [vemurafenib]
WM9R cells
  amount of dxr in cells in the presence of vemurafenib: significantly increased
A375 cells [3]
  amount of dxr in cells in the presence of vemurafenib: significantly increased
[4]
  ERK phosphorylation in tumor extracts (pERK/ERK, Western blot): reduced ERK phosphorylation

## COc1ccc(O)c(CC=C(C)CCc2c(C)cc(OC)c(C)c2C)c1 [Compound 8]
MeWo cells [2]
  Dxr-IC50 in the presence of 20 µM compound: could not be determined, owing to greater than 50% viability
  effect on dxr cytotoxicity: had no effect on dxr cytotoxicity

## COc1ccc(O)c(CCC(C)CCc2c(C)cc(OC)c(C)c2C)c1 (centres unmarked) [Compound 11]
MeWo cells [2]
  Dxr-IC50 in the presence of 20 µM compound: could not be determined, owing to greater than 50% viability

## COc1cc(C)c(CC/C(C)=C/Cc2cc(O)ccc2O)c(C)c1C [Natural PAH, panicein A hydroquinone]
A375 cells [1]; A-375, A375 cells, 2 µM Dxr present, read-out: IC50 of PAH at 2 µM Dxr
  IC50: 12.4 ± 4.9 µM
MeWo cells [2]; MeWo, MeWo cells, 2 µM Dxr present, read-out: IC50 of PAH at 2 µM Dxr
  IC50: 6.6 ± 0.8 µM

## COc1cc(C)c(CCC(C)=CCC2=CC(=O)C=CC2=O)c(C)c1C [Compound 9, Panicein A]
MeWo cells [2]
  Dxr-IC50 in the presence of 20 µM compound: could not be determined, owing to greater than 50% viability
  effect on dxr cytotoxicity: very weakly increased the cytotoxicity of dxr

## COc1cccc2c1C(=O)c1c(O)c3c(c(O)c1C2=O)C[C@@](O)(C(=O)CO)C[C@@H]3O[C@H]1C[C@H](N)[C@H](O)[C@H](C)O1 [Dxr, Doxorubicin hydrochloride, reference compound]
MeWo-DxrR cells
  IC50: 247 ± 49 µM
A375 cells [1]; A-375, A375, Dxr + DMSO, 24 or 48 h, read-out: Dxr IC50
  IC50: 41 ± 8.2 µM
MeWo cells [2]; MeWo, Dxr + DMSO, 24 or 48 h, read-out: Dxr IC50
  IC50: 142 ± 2.2 µM
MeWo cells [5]
  Tumor regression (%) (tumor weight with respect to control): 28%
